# Laboratory results taken from patent US20060148683A1, “Detection and treatment of intravascular lesions” (priority 2001, published 2006).
# Starred links: 1 amine or outer side, 2 acyl side, 3 side chain; linkers in the order of their positions; H or OH if unused. Positions of bridges follow the written chain, without caps; N, C: chain ends. Non-standard residues stand in square brackets, D forms with d. Residues, ends and D or L forms follow the SMILES beside them. Groups on a side chain read outwards from the residue. ξ: configuration not given here. *: point of attachment. NH(Fluorescein-5-yl) = O=C1OC2(c3ccc(O)cc3Oc3cc(O)ccc32)c2ccc(N*)cc21; Tyr(3-I) = N[C@@H](Cc1ccc(O)c(I)c1)C(=O)O; Mca = COc1ccc2c(CC(=O)*)cc(=O)oc2c1; Hyp = O=C(O)[C@@H]1C[C@@H](O)CN1; Ile(3ξ) = CCC(C)[C@H](N)C(=O)O; CO = O=C([*:1])[*:2]; Ahx = NCCCCCC(=O)O; βAla = NCCC(=O)O
# Biological target: T1, DD(E) fragment of fibrin (Homo sapiens, UniProt P02671+P02675+P02679, DEL433-453)
# T1 construct: complex of the crosslinked D domains of adjacent fibrin monomers with the central E domain of fibrin
# T1 sequence (P02671 130-216 limits assumed, stated change not applied): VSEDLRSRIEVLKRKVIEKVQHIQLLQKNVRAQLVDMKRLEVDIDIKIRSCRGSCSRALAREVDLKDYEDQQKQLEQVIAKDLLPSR
# T1 sequence (P02671 36-97 limits assumed, stated change not applied): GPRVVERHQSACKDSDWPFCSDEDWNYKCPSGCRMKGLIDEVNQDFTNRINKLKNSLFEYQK
# T1 sequence (P02675 164-491 limits assumed, stated change not applied): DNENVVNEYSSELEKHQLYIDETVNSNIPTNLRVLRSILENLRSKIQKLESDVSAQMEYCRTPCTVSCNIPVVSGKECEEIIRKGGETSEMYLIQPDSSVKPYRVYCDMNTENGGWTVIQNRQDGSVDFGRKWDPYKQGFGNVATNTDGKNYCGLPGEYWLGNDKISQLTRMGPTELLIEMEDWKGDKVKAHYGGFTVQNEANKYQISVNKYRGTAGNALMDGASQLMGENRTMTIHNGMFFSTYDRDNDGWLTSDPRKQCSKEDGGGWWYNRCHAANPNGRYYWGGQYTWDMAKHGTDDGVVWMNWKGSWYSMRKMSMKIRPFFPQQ
# T1 sequence (P02675 45-152 limits assumed, stated change not applied): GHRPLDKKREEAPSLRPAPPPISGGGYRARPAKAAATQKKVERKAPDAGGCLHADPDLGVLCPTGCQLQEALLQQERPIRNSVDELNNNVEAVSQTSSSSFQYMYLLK
# T1 sequence (P02679 114-432 limits assumed, stated change not applied): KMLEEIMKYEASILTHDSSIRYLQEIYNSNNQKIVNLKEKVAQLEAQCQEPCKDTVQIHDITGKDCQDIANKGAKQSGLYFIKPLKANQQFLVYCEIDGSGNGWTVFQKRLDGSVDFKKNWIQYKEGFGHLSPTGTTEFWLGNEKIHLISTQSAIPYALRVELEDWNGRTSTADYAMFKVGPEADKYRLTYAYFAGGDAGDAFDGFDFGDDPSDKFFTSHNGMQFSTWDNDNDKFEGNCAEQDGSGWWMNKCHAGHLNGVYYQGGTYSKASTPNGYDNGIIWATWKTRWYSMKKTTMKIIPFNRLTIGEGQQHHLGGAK
# T1 sequence (P02679 27-88 limits assumed, stated change not applied): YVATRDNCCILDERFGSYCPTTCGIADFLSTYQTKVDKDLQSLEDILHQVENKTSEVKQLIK
# Assay: Dissociation constant (Kd) of optical agent for DD(E) fragment of fibrin
# Type: binding
# Details: 24° C.; read-out: Kd (μM) vs. DD(E) @ 24° C.
# Excerpt: Optical agents of the invention include an OD and a FBM covalently bound to each other, either directly or via a linker (OD-L-FBM). The FBM can be a small molecule or a peptide. As used herein, the term “peptide” refers to a chain of amino acids that is about 2 to about 75 amino acids in length (e.g., 3 to 50 amino acids). Affinity of a peptide for fibrin can be expressed in terms of its dissociation constant (Kd), which is the equilibrium constant for the dissociation reaction of the peptide from the DD(E) fragment of fibrin. The term “DD(E) fragment of fibrin” refers to a fibrin subcomponent generated by proteolytic degradation of fibrin with plasmin or trypsin. The DD(E) fragment is a complex of the crosslinked D domains of adjacent fibrin monomers with the central E domain of fibrin (See, for example, Spraggon et al., Nature 389:455462 (1997)). Since DD(E) is a product resulting from the proteolysis of fibrin, one of skill in the art will understand that there may be some slight heterogeneity in its composition. The DD(E) fragment can be biotinylated and immobilized via avidin to a solid substrate (e.g., a multi-well plate). Peptides can be incubated with the immobilized DD(E) fragment in a suitable buffer and binding detected using known methodology. Methods for determining the dissociation constant of the peptide for DD(E) are set forth in WO 01/09188.
# As a result of the FBM having affinity for fibrin, the optical agent also has affinity for fibrin. The term “affinity” refers to the capacity of the optical agent to be taken up by, retained by, or bound to the fibrin in the lesion. The affinity of an optical agent can be expressed in terms of its Kd, which is the equilibrium constant for the dissociation reaction of the optical agent from fibrin, and determined as discussed above for the peptide. The dissociation constant of the optical agent for DD(E) can have a value less than about 10 μM (e.g., 0.1 μM to 10 μM). In one embodiment, the dissociation constant value is less than about 5 μM. In another embodiment, the dissociation constant value is less than about 1 μM. The dissociation constant also may have a value less than about 0.3 μM (e.g., 0.2 μM).
# In the methods of the present invention, the optical agent forms a fibrin-optical agent complex at the site of the lesion. The ability of the optical agent to form a fibrin-optical agent complex may be measured by examining the optical agent's dissociation constant (Kd) for a DD(E) fragment of fibrin as discussed above.
row,SMILES,Kd [µM]
1,CC[C@H](C)[C@H](NC(=O)[C@H](Cc1c[nH]cn1)NC(=O)[C@@H]1CSSC[C@H](NC(=O)[C@H](Cc2c[nH]cn2)NC(=O)[C@H](Cc2ccccc2)NC(=O)CCNC(=O)Nc2ccc3c(c2)C(=O)OC32c3ccc(O)cc3Oc3cc(O)ccc32)C(=O)N2C[C@H](O)C[C@H]2C(=O)N[C@@H](Cc2ccc(O)c(I)c2)C(=O)N[C@@H](CC(=O)O)C(=O)N[C@@H](CC(C)C)C(=O)N1)C(=O)N[C@@H](CC(C)C)C(N)=O [Structure I] ({NH(Fluorescein-5-yl)-CO-βAla}-FHC[Hyp][Tyr(3-I)]DLCHIL-NH2; disulfide 3-8),0.1
2,CC[C@H](C)[C@H](NC(=O)[C@H](Cc1c[nH]cn1)NC(=O)[C@@H]1CSSC[C@H](NC(=O)[C@H](Cc2c[nH]cn2)NC(=O)[C@H](Cc2ccccc2)NC(=O)[C@H](Cc2c[nH]c3ccccc23)NC(=O)CCCCCNC(=O)Nc2ccc3c(c2)C(=O)OC32c3ccc(O)cc3Oc3cc(O)ccc32)C(=O)N2C[C@H](O)C[C@H]2C(=O)N[C@@H](Cc2ccc(O)c(I)c2)C(=O)N[C@@H](CC(=O)O)C(=O)N[C@@H](CC(C)C)C(=O)N1)C(=O)N[C@@H](CC(C)C)C(N)=O [Structure IV] ({NH(Fluorescein-5-yl)-CO-Ahx}-WFHC[Hyp][Tyr(3-I)]DLCHIL-NH2; disulfide 4-9),0.06
3,CC[C@H](C)[C@H](NC(=O)[C@H](Cc1c[nH]cn1)NC(=O)[C@@H]1CSSC[C@H](NC(=O)[C@H](Cc2c[nH]cn2)NC(=O)[C@H](Cc2ccccc2)NC(=O)CCCCCNC(=O)Nc2ccc3c(c2)C(=O)OC32c3ccc(O)cc3Oc3cc(O)ccc32)C(=O)N2C[C@H](O)C[C@H]2C(=O)N[C@@H](Cc2ccc(O)c(I)c2)C(=O)N[C@@H](CC(=O)O)C(=O)N[C@@H](CC(C)C)C(=O)N1)C(=O)N[C@@H](CC(C)C)C(N)=O [Structure II] ({NH(Fluorescein-5-yl)-CO-Ahx}-FHC[Hyp][Tyr(3-I)]DLCHIL-NH2; disulfide 3-8),0.1
4,CC[C@H](C)[C@H](NC(=O)[C@H](Cc1c[nH]cn1)NC(=O)[C@@H]1CSSC[C@H](NC(=O)[C@H](Cc2c[nH]cn2)NC(=O)[C@H](Cc2ccccc2)NC(=O)CNC(=O)CNC(=O)CCCCCNC(=O)Nc2ccc3c(c2)C(=O)OC32c3ccc(O)cc3Oc3cc(O)ccc32)C(=O)N2C[C@H](O)C[C@H]2C(=O)N[C@@H](Cc2ccc(O)c(I)c2)C(=O)N[C@@H](CC(=O)O)C(=O)N[C@@H](CC(C)C)C(=O)N1)C(=O)N[C@@H](CC(C)C)C(N)=O [Structure V] ({NH(Fluorescein-5-yl)-CO-Ahx}-GGFHC[Hyp][Tyr(3-I)]DLCHIL-NH2; disulfide 5-10),0.09
5,CC[C@H](C)[C@H](NC(=O)[C@H](Cc1c[nH]cn1)NC(=O)[C@@H]1CSSC[C@H](NC(=O)[C@H](Cc2c[nH]cn2)NC(=O)[C@H](Cc2ccccc2)NC(=O)CNC(=O)CNC(=O)[C@@H](N)CCCCNC(=O)Nc2ccc3c(c2)C(=O)OC32c3ccc(O)cc3Oc3cc(O)ccc32)C(=O)N2C[C@H](O)C[C@H]2C(=O)N[C@@H](Cc2ccc(O)c(I)c2)C(=O)N[C@@H](CC(=O)O)C(=O)N[C@@H](CC(C)C)C(=O)N1)C(=O)N[C@@H](CC(C)C)C(N)=O [Structure IX] (H-K([CO-NH(Fluorescein-5-yl)])GGFHC[Hyp][Tyr(3-I)]DLCHIL-NH2; disulfide 6-11),0.1

# Same assay, conditions: read-out: Kd vs. DD(E)
row,SMILES,Kd [µM]
1,CCC(C)[C@H](NC(=O)[C@H](Cc1c[nH]c2ccccc12)NC(=O)[C@@H]1CSSC[C@H](NC(=O)[C@H](CCC(=O)O)NC(=O)[C@H](Cc2c[nH]c3ccccc23)NC(=O)[C@@H](CCC(N)=O)NC(=O)CCCCCNC(=O)Cc2cc(=O)oc3cc(OC)ccc23)C(=O)N2CCC[C@H]2C(=O)N[C@@H](Cc2ccc(O)cc2)C(=O)NCC(=O)N[C@@H](CC(C)C)C(=O)N1)C(=O)N[C@@H](CCC(N)=O)C(N)=O (stereo partly drawn) [Structure XIII] ({Mca-Ahx}-[dQ]WECPYGLCW[Ile(3ξ)]Q-NH2; disulfide 4-9),0.2
